Drawing on a melting point compilation (Tetko et al.; mined from patent text by program, amines drawn as free bases though some values may be those of a salt), this text covers melting point for 89 compounds.

Bounds are passed on as bounds.

A word on the melting point: it is the temperature, or range, at which the solid turns liquid. Consider `CCCc1ccc(C=Nc2ccc(C#N)cc2)cc1`, for which the melting point is 64.8 to 65.5 °C.
For `CCc1nc2c(N)nc3cc(OS(C)(=O)=O)ccc3c2n1CCOc1ccccc1` the value was 213 to 214 °C; for `CN1C[C@H](CN2CCN(C(c3ccccc3)c3ccccc3)CC2)C=C2c3cccc4[nH]c(Cl)c(c34)C[C@H]21`, 208 °C.
The result for `COc1cc(CBr)c(OC)c(CCc2cc(OC)cc(CBr)c2OC)c1` reads 158 to 161 °C; that for `COc1ncccc1NC(=O)Nc1ccc(N2CCN(C(=O)Nc3ccc(OCCO)cc3C(F)(F)F)CC2)cc1`, 120 to 123 °C.
For `Cc1ccc2c(c1)C(C(F)(F)F)(C(F)(F)F)c1cc(C)ccc1O2` the value was 136 to 137 °C; for `CC1(C(=O)O)CCc2cc(O)ccc2O1` (centres undefined), 190 to 192 °C; for `N#Cc1ccc(Oc2nccc(-c3c(-c4ccc(F)cc4)ncn3C3CCNCC3)n2)cc1`, 192 to 193 °C.
With `COC(=O)C(C)c1ccc(OCCNC(=O)C2Cc3ccccc3N2S(=O)(=O)c2ccc(-c3cc(C(F)(F)F)ccc3Cl)cc2)cc1` (centres undefined), the melting point fell in the range of 55 to 63 °C.
The result for `CS(=O)CCNC(N)=O` (centres undefined) reads 88 °C; that for `N#Cc1ccc(C=CC(=O)c2ccccc2N)cc1`, 126 to 128 °C; that for `CC=C1CCC(C(=O)OCCOC(=O)C2=C(C)C(=CC)CC2)=C1C`, 95 to 97 °C.
`CC1CCC(=Nc2ccccc2)N1Cc1c[nH]c2ccccc12` (centres undefined) registered a melting point of 88 to 92 °C.
For `O=[N+]([O-])c1ccc(CSc2ncnc3nc[nH]c23)cc1` the value was 239 °C.
The result for `NC(=O)c1nnsc1Nc1ccccc1` reads 195 to 197 °C; that for `N#CC(C#N)=CN(N=C(C#N)C#N)c1ccc(Cl)cc1`, 161 to 162 °C.
For `NCC1CCc2[nH]c3ccc(Cl)cc3c2C1` (centres undefined) the value was 142 to 144 °C.
In turn, `Nc1ncnc2c1c(-c1cccc(CO)c1)nn2Cc1oc2ccccc2c(=O)c1-c1ccccc1` came in with a melting point of 219 to 223 °C.
The result for `O=[N+]([O-])C=Cc1ccc(OCc2ccccc2)c(OCc2ccccc2)c1` reads 118 to 119 °C; that for `NC(=O)c1nccn1C1Cc2cc(F)ccc2C1=O` (centres undefined), 221 °C.
The result for `COc1ccc(CC(CC(=O)O)CC(=O)O)cc1` reads 109 to 110 °C; that for `CN(C)c1ccc(/C=C/c2c(Cl)cccc2Cl)cc1`, 96 to 97 °C.
The result for `O=S1(=O)c2cccc3cccc(c23)N1CCCN1CCN(c2cccc(F)c2)CC1` reads 103 °C; that for `O=c1c2c(Cc3cccc(C(F)(F)F)c3)n[nH]c2c2cccnc2n1-c1cccc(C(F)(F)F)c1`, 206 to 208 °C; that for `COCc1c(C(=O)OC(C)C)ncc2[nH]c3cccc(Oc4ccc(Cl)cn4)c3c12`, 190 to 191 °C.
`CS(=O)(=O)Nc1ccc(CCBr)cc1` yielded a melting point of 92 to 94 °C.
The result for `CCOC(=O)c1[nH]cc2c1NC1=C(C(=O)CNC1)C2c1ccc(Sc2nc3cc(F)c(F)cc3[nH]2)o1` (centres undefined) reads 190 to 196 °C; that for `Cc1cc(NCCNCC(O)COc2ccccc2)n2ncnc2n1` (centres undefined), 126 to 127 °C; that for `CC(C)c1ccc(C(=O)C2=C(O)C(=O)N(c3ncc(S(=O)(=O)c4ccc([N+](=O)[O-])cc4)s3)C2c2ccc(OC(F)(F)F)cc2)cc1` (centres undefined), 276 to 278 °C.
The result for `CCC(=O)N(CC)c1cccc(-c2ccnc3c(C#N)cnn23)c1` reads 161 to 162 °C.
For the compound `Oc1cccc2c1CCC=C2`, the melting point lay in the range of 67 to 68 °C.
For `COc1ccc(CNC(=O)c2[nH]c(C)c(-c3nc4ccc(C(=O)c5ccccc5)cc4[nH]3)c2C)cc1OC` the value was 120 to 122 °C; for `CNC(=O)C(Cc1c[nH]c2ccccc12)NC(=O)Nc1n[nH]c(=S)s1` (centres undefined), 205 to 210 °C.
The result for `Cc1ccc([C@H]2O[C@@H]2C(N)=O)cc1` reads 183 to 185 °C; that for `Cc1cc(NCc2ccc(-c3ccccc3-c3nnn(C(c4ccccc4)(c4ccccc4)c4ccccc4)n3)cc2)c(I)c(C)n1`, 209 to 211 °C; that for `CC(=O)NCC1CN(c2ccc(N3CCS(=O)CC3)c(F)c2)C(=O)O1` (centres undefined), 159 to 161 °C.
For `CC(C)Oc1ccccc1C=C(C=O)C(C=O)=Cc1ccccc1OC(C)C` the value was 109 to 110 °C.
The compound `NC(=O)C1CCC(=O)N1CC#CCN1CCCCC1` (centres undefined) registered a melting point of 143 to 145 °C.
The result for `CN(C)c1ccn2nc(S(=O)(=O)Nc3c(Cl)cccc3Cl)nc2n1` reads > 310 °C; that for `O=c1cc(O)c2cccnc2n1Cc1ccccc1`, 250 to 253 °C; that for `CCOC(=O)c1cn(-c2nc(N)c(F)cc2F)c2c(F)c(F)c(F)c(NCc3ccccc3)c2c1=O`, 176 to 180 °C.
For `O=C(O)c1ncn2c1[C@@H]1CCN1C(=O)c1c(Br)cccc1-2` the value was 178 to 180 °C; for `O=C1C2=C(CCCC2)C(=O)N1c1ccc(O)cc1F`, 132 to 136 °C.
For `COc1cc2cc3c(Cl)c(C#N)cnc3nc2cc1OC` the value was > 300 °C; for `CCOC(=O)c1cn2c3c(c(F)c(F)cc3c1=O)OCC2COC` (centres undefined), 238 °C.
In the case of `Oc1cc(O)nc(C(F)(F)F)n1`, the melting point lay within 255 to 256 °C.
The result for `COCCOCCN1C(=O)C2(COc3cc4c(cc32)OCCO4)c2ccccc21` (centres undefined) reads 90 to 91 °C; that for `O=C(Cl)c1cscc1S(=O)(=O)Cl`, 78 to 79 °C; that for `CCNC(=O)c1c(-c2ccccc2)cccc1[Si](C)(C)C`, 159 to 160 °C.
With `CCCCNc1n[nH]c2c1c(=O)n(CCC)c1ccccc21`, the melting point was 169 to 172 °C.
`C[C@@H]1C(=O)N(c2ccc(C#N)c(Cl)c2)[C@@H](C)[C@H]1O` had a melting point of 149 to 151 °C.
The result for `CCOC(=O)c1cn(C(C)(C)C)c2nc(NC(=O)c3ccc(C)cc3)sc12` reads 200 to 201 °C; that for `CC(C)c1cc(O)cc(C(C)C)c1NC(=O)CN1CCN(CCSc2nc3ccccc3[nH]2)CC1`, 241 to 242 °C; that for `CC(C)OC(=O)c1cn(-c2cccnc2)cn1`, 130 to 131 °C.
For `O=[N+]([O-])c1ccc(N=Nc2ccc(N(CC3CO3)CC3CO3)cc2)cc1` (centres undefined) the value was 135 to 136 °C; for `CC(C)(O)c1ccc(CC(=O)Nc2cccnc2Oc2cccnc2)cc1`, 122 to 124 °C.
For `Fc1ccccc1CC1CCN(C2CC=C(c3ccc4c(c3)OCO4)CC2)CC1` (centres undefined) the value was 118 to 119 °C; for `COc1nc(OC)nc(Oc2cccc3c2C(=S)OC3C)n1` (centres undefined), 177 to 178 °C.
`Cc1csc(C2=CCN(CCCC(=O)c3ccc(F)cc3)CC2)n1`: the melting point lay in the range of 81 to 82 °C.
For `CC1c2ccccc2Cn2cc3c(c21)C(=O)c1ccccc1C3=O` (centres undefined) the value was 215 to 218 °C; for `C=CCc1cc2c(c(CC=C)c1O)CCC(=O)N2CCCNC(=O)CCl`, 152 to 154 °C.
For `Cc1ccc(-c2nc3sc4ccccc4n3c2CC(=O)O)s1` the value was 255 to 259 °C; for `COc1cc(C=O)ccc1OCCCC(=O)O`, 143 to 148 °C; for `CSC(=S)NN=Cc1nc(Cc2ccccc2)[nH]c1C`, 207 to 210 °C.
For `COc1ccc(-c2[nH]c3ccc(Cl)cc3c2-c2ccc(S(C)(=O)=O)cc2)cc1` the value was 246 to 248 °C; for `CC1(N)CN(c2c(F)cc3c(=O)c4c(=O)[nH]sc4n(C4CC4)c3c2F)C1`, 294 to 300 °C.
As for `N#CC(=Cc1cc2ccccc2c2ccccc12)c1ccncc1`, the melting point lay in the range of 206 to 208 °C.
For `NC(=O)c1sc2ncnc(-c3cccc(NC(=O)Nc4ccccc4C(F)(F)F)c3)c2c1N` the value was 172 to 175 °C.
`CC(C(=O)N(C)C)n1cc(C#N)c(-c2ccccc2)n1` (centres undefined): the melting point fell in the range of 143 to 146 °C.
The result for `CCOCc1nc2c(N)nc3c(c2n1NC(C)C)CCCC3` reads 144 to 146 °C; that for `COc1ccccc1NS(=O)(=O)c1ccc(F)cc1`, 101 to 102 °C.
The result for `O=C(NC(=O)N(SN1CCOCC1)c1ccc(Oc2ccc(C(F)(F)F)cc2Cl)cc1F)c1c(F)cccc1F` reads 77 to 80 °C; that for `O=c1[nH][nH]c(=O)c2c(O)c3ccc([N+](=O)[O-])cc3nc12`, > 400 °C.
The result for `O=[N+]([O-])c1ccc(C(O)c2ccoc2)cc1` (centres undefined) reads 50 to 52 °C; that for `Cn1cnnc1C(c1ccc(C#N)cc1)c1cc2c3c(c1)c(-c1cccc(Cl)c1)cc(=O)n3CC2` (centres undefined), 174 °C; that for `CC(C)CCCC(C)C1CCC2C3=CC=C4CC(OC(=O)c5ccccc5)CC(OC(=O)c5ccccc5)C4(C)C3CCC21C` (centres undefined), 161 °C.
As to `Cc1ccc(=S)n(-c2cccc(C(F)(F)F)c2)c1`, the melting point was 96 °C.
The result for `CSC(=NC(=O)COC(C)=O)N(C)N=Cc1ccccc1` reads 115 to 117 °C; that for `COc1ccc(OC)c(Nc2nc(-c3ccc(F)cc3)cs2)c1`, 160 °C.
Compound `Cc1ccc(S(=O)(=S)OCC2CC2)cc1` (centres undefined) showed a melting point of 46 to 48 °C.
For `C=CCN(CC=C)c1ccc(C=Cc2ccc(S(C)(=O)=O)cc2)cc1` the value was 101 to 102 °C.
For `O=C(CNC(=O)OC(c1ccccc1)c1ccccc1)Oc1c(Cl)c(Cl)c(Cl)c(Cl)c1Cl`, the melting point lay in the range of 171 to 172 °C.
For `CCC(=NNC(=O)c1ccccc1)c1ccncc1` the value was 178 °C; for `O=C1NC(=O)C(c2ccccc2Cl)C1c1cc2c3c(ccn3CCC2)c1` (centres undefined), 209 to 212 °C.
The result for `COc1ccc2c(c1)C13CCCOC1(C)C(C2)N(C(=O)C1CCC1)CC3` (centres undefined) reads 166 to 167 °C; that for `CC(C)(C)C(=O)Nc1ccncc1C(=NN)c1ccccc1F`, 78 to 82 °C.
For `Cn1nccc(N)c1=O` the value was 191 to 192 °C; for `O=[N+]([O-])c1oc2ccc(CN3CCN(c4ccccc4)CC3)cc2c1-c1ccccc1`, 155 to 157 °C.
The compound `CCCCCCSc1nn2c(=O)cc(O)nc2s1` displayed a melting point of 187 to 192 °C.
